Tests used:
Conditions in all cases: exposure time: 90 min
[1] = test system: 11235 (donor line of iPSC-derived cardiomyocytes); experiment: POD (EC10) for decrease in total cell number (cytotoxicity) vs vehicle; higher = less potent (higher point of departure)
Outline: (§1)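 Donor-specific cytotoxicity points of departure were derived from hierarchical Bayesian Hill fits to vehicle-normalised nuclear counts. The benchmark for these fits was a 10% decrease. The cells were human iPSC-derived cardiomyocytes from 16 donors, cultured 14 days in 384-well plates and exposed for 90 min at 37 °C to 0.1, 1, 10 and 100 µM (final, 0.5% DMSO). Following a Ca2+ flux read, they were stained for 15 min with Hoechst 33342 (2.2 µg/mL) and MitoTracker Orange, imaged at 10× on an ImageXpress Micro Confocal, and their nuclei counted per field in MetaXpress.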

[2] = test system: 1392 (donor line of iPSC-derived cardiomyocytes); experiment: as above
Outline: as §1

[3] = test system: 1434 (donor line of iPSC-derived cardiomyocytes); experiment: as above
Outline: as §1

[4] = test system: 1531 (donor line of iPSC-derived cardiomyocytes); experiment: as above
Outline: as §1

[5] = test system: 1565 (donor line of iPSC-derived cardiomyocytes); experiment: as above
Outline: as §1

[6] = test system: 20032 (donor line of iPSC-derived cardiomyocytes); experiment: as above
Outline: as §1

[7] = test system: 20084 (donor line of iPSC-derived cardiomyocytes); experiment: as above
Outline: as §1

[8] = test system: 30145 (donor line of iPSC-derived cardiomyocytes); experiment: as above
Outline: as §1

[9] = test system: 30171 (donor line of iPSC-derived cardiomyocytes); experiment: as above
Outline: as §1

[10] = test system: 1083 (donor line of iPSC-derived cardiomyocytes); experiment: POD (EC05) for increase in beat frequency (positive chronotrope) vs vehicle; higher = less potent (higher point of departure)
Protocol: (§2)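 Human iPSC-derived cardiomyocytes from 16 donors were exposed for 90 min at 37 °C to each PFAS at 0.1, 1, 10 and 100 µM in 0.5% DMSO, 384-well plates. Kinetic Ca2+ flux (FLIPR) and Hoechst nuclei counts were normalised to vehicle wells and fitted with a hierarchical Bayesian Hill model to give donor-specific PODs: EC05 for beat-rate increase or decrease and for decay-to-rise ratio increase (QT proxy), EC95 for peak-frequency loss (asystole), EC10 for total cell number loss. 0.03 µM is the lower bound.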

[11] = test system: 1118 (donor line of iPSC-derived cardiomyocytes); experiment: as above
Protocol: as §2

[12] = test system: 11235; experiment: as above
Protocol: as §2

[13] = test system: 1309 (donor line of iPSC-derived cardiomyocytes); experiment: as above
Protocol: as §2

[14] = test system: 1368 (donor line of iPSC-derived cardiomyocytes); experiment: as above
Protocol: as §2

[15] = test system: 1392; experiment: as above
Protocol: as §2

[16] = test system: 1434; experiment: as above
Protocol: as §2

[17] = test system: 1516 (donor line of iPSC-derived cardiomyocytes); experiment: as above
Protocol: as §2

[18] = test system: 1565; experiment: as above
Protocol: as §2

[19] = test system: 20032; experiment: as above
Protocol: as §2

[20] = test system: 30171; experiment: as above
Protocol: as §2

Measured: POD vs vehicle

O=C(CC(=O)C(F)(F)C(F)(F)F)C(F)(F)F [3H,3H-Perfluoro-2,4-hexanedione]
21.9 µM: [3]
93.5 µM: [2]
> 100 µM: all other assays above

O=S(=O)(O)CCC(F)(F)C(F)(F)C(F)(F)C(F)(F)F [4:2 Fluorotelomer sulfonic acid]
> 100 µM: all assays above

OCC(F)(F)C(F)(F)C(F)(F)C(F)(F)C(F)(F)C(F)(F)F [6:1 Fluorotelomer alcohol]
13.1 µM: [3]
> 100 µM: all other assays above

OCCC(F)(F)C(F)(F)C(F)(F)C(F)(F)C(F)(F)C(F)(F)F [6:2 Fluorotelomer alcohol]
1.73 µM: [16]
> 100 µM: all other assays above

O=S(=O)(O)CCC(F)(F)C(F)(F)C(F)(F)C(F)(F)C(F)(F)C(F)(F)F [6:2 Fluorotelomer sulfonic acid]
> 100 µM: all assays above

OCCC(F)(F)C(F)(F)C(F)(F)C(F)(F)C(F)(F)C(F)(F)C(F)(F)C(F)(F)F [8:2 Fluorotelomer alcohol]
> 100 µM: all assays above

O=S(=O)(O)CCC(F)(F)C(F)(F)C(F)(F)C(F)(F)C(F)(F)C(F)(F)C(F)(F)C(F)(F)F [8:2 Fluorotelomer sulfonic acid]
27.8 µM: [10]
77.4 µM: [14]
> 100 µM: all other assays above

O=C(O)C(F)(F)C(F)(F)C(F)(F)C(F)(F)C(F)(F)C(F)(F)C(F)(F)C(F)(F)Cl [9-Chloro-perfluorononanoic_acid]
36.7 µM: [3]
30.5 µM: [9]
> 100 µM: all other assays above

O=P(O)(O)CCC(F)(F)C(F)(F)C(F)(F)C(F)(F)C(F)(F)C(F)(F)C(F)(F)C(F)(F)F [((Perfluorooctyl)ethyl)phosphonic_acid]
> 100 µM: all assays above

OCC(F)(F)C(F)(F)C(F)(F)C(F)(F)C(F)(F)C(F)F [Dodecafluoroheptanol]
85.3 µM: [1]
58.4 µM: [6]
46.4 µM: [9]
> 100 µM: all other assays above

OCC(F)(F)C(F)(F)C(F)(F)F [Heptafluorobutanol]
> 100 µM: all assays above

NC(=O)C(F)(F)C(F)(F)C(F)(F)F [Heptafluorobutyramide]
> 100 µM: all assays above

OCC(F)(F)C(F)(F)C(F)(F)CO [Hexafluoroamylene_glycol]
> 100 µM: all assays above

COC(=O)C(F)(F)C(F)(F)OC(F)(C(F)(F)F)C(F)(F)OC(F)=C(F)F (stereo not given) [Methyl_perfluoro(3-(1-ethenyloxypropan-2-yloxy)propanoate)]
0.591 µM: [6]
> 100 µM: all other assays above

NC(=O)C(F)(F)C(F)(F)C(F)(F)C(F)(F)F [Nonafluoropentanamide]
> 100 µM: all assays above

NC(=O)C(F)(F)C(F)(F)C(F)(F)C(F)(F)C(N)=O [Octafluoroadipamide]
> 100 µM: all assays above

O=C(O)C(F)(F)C(F)(F)C(F)(F)OC(F)(F)F [Perfluoro(4-methoxybutanoic)_acid]
> 100 µM: all assays above

O=C(O)C(F)(F)OC(F)(F)C(F)(F)OC(F)(F)C(F)(F)OC(F)(F)C(F)(F)C(F)(F)C(F)(F)F [Perfluoro-3,6,9-trioxatridecanoic_acid]
33.3 µM: [3]
59.5 µM: [9]
> 100 µM: all other assays above

O=C(O)C(F)(F)OC(F)(F)C(F)(F)OC(F)(F)F [Perfluoro-3,6-dioxaheptanoic_acid]
> 100 µM: all assays above

Reference: the supplement of paper PMC11368000
